Measured values published in patent publication US4948797A, “2,2-disubstitued 2,3-dihydro-1,4-benzodioxin derivatives having hypotensive activity” (Istituto Luso Farmaco d'Italia S.p.A., priority 1988, dated 1990).

What was measured:
[1] = target: α2 receptors; test: in vitro action on the α2 receptors, determined in respect of [^3 H]-Clonidine; assay type: binding
Excerpt: (§1) Bremner, Eur. J. Pharmacol 55, 323 (1979) and D. C. U. Prichard et al, Mol. Pharmacol 13, 454 (1977), while in vivo they seem to have a low toxicity and a good and durable anti-hypertensive activity, determined in the SHR rat by oral route, with the method reported by J Pfeffer et al, J. Lab. Clin. Med. 78, 957 (1971).

[2] = toxicity, expressed as LD50, oral; details: in vivo
[3] = system: SHR rat; test: anti-hypertensive activity in the SHR rat by oral route (with heart rate); assay type: in vivo
Excerpt: as §1

[4] = target: α1 receptors; test: in vitro affinity for the α1 receptors, determined in respect of [^3 H]-Prazosin; assay type: binding
Excerpt: as §1

Compound: CC1(C(O)CN2CCC(n3c(=O)[nH]c4ccccc43)CC2)COc2ccccc2O1 (racemic) [1-[2-(2,3-dihydro-2-methyl-1,4-benzodioxin-2-yl)-2-hydroxy-ethyl]-4-piperidinyl]-1,3-dihydro-2H-benzimidazol-2-one]
- IC50 [1]: 18000 nM
- LD50 [2]: ~1000 mg/kg
- effect on heart rate ([3]; 20 mg/kg/os dosage): without significantly varying the heart rate
- reduction of the pressure ([3]; SHR rat, 20 mg/kg/os dosage): 21%
- IC50 [4]: 55 nM

Compound: COc1cc2nc(N3CCN(CC(O)C4(C)COc5ccccc5O4)CC3)nc(N)c2cc1OC.Cl (stereo not shown) [1-(4-amino-6,7-dimethoxyquinazolin-2-yl)-4-[2-(2,3-dihydro-2-methyl-1,4-benzodioxin-2-yl)-2-hydroxyethyl]-piperazine hydrochloride]
- IC50 [1]: > 10000 nM
- LD50 [2]: > 2000 mg/kg
- effect on heart rate ([3]; 30 mg/kg/os dosage): without significantly modifying the heart rate
- reduction in the pressure ([3]; SHR rat, 30 mg/kg/os dosage): 20%
- IC50 [4]: 3.6 nM
